From the supplement of paper PMC10307832

Experiments:
Test in all cases: relative viability (nuclei count vs DMSO), 5 days (fraction); higher = more cells survive
Etoposide + OSI-027 = compound: COc1cc([C@@H]2c3cc4c(cc3[C@@H](O[C@@H]3O[C@@H]5CO[C@@H](C)O[C@H]5[C@H](O)[C@H]3O)[C@H]3COC(=O)[C@H]23)OCO4)cc(OC)c1O [Etoposide] + COc1cccc2cc(-c3nc([C@H]4CC[C@H](C(=O)O)CC4)n4ncnc(N)c34)[nH]c12 [OSI-027] (partner 0.5 µM)
Outline: (§1)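 Dosing by pin tool came one day after lung cancer cell lines were seeded in 1536-well plates, using either one drug or a fixed anchor-drug dose plus five library-drug doses (not always all listed) in √10 steps. After 5 days, nuclei were counted on 4× images. Relative viability is treated-well nuclei count divided by vehicle-well nuclei count, and values are medians of duplicate plates.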

Etoposide + Navitoclax = compound: COc1cc([C@@H]2c3cc4c(cc3[C@@H](O[C@@H]3O[C@@H]5CO[C@@H](C)O[C@H]5[C@H](O)[C@H]3O)[C@H]3COC(=O)[C@H]23)OCO4)cc(OC)c1O [Etoposide] + CC1(C)CCC(c2ccc(Cl)cc2)=C(CN2CCN(c3ccc(C(=O)NS(=O)(=O)c4ccc(N[C@H](CCN5CCOCC5)CSc5ccccc5)c(S(=O)(=O)C(F)(F)F)c4)cc3)CC2)C1 [Navitoclax] (partner 0.5 µM)
Outline: as §1

Bleomycin + OSI-027 = compound: CC1=C(N=C(N=C1N)[C@H](CC(=O)N)NC[C@@H](C(=O)N)N)C(=O)N[C@@H]([C@H](C2=CN=CN2)OC3C(C(C(C(O3)CO)O)O)OC4C(C(C(C(O4)CO)O)OC(=O)N)O)C(=O)N[C@H](C)[C@H]([C@H](C)C(=O)N[C@@H]([C@@H](C)O)C(=O)NCCC5=NC(=CS5)C6=NC(=CS6)C(=O)NCCC[S+](C)C)O [Bleomycin] + COc1cccc2cc(-c3nc([C@H]4CC[C@H](C(=O)O)CC4)n4ncnc(N)c34)[nH]c12 [OSI-027] (partner 0.5 µM); conditions: main component drawn
Outline: as §1

Etoposide + Pictilisib = compound: COc1cc([C@@H]2c3cc4c(cc3[C@@H](O[C@@H]3O[C@@H]5CO[C@@H](C)O[C@H]5[C@H](O)[C@H]3O)[C@H]3COC(=O)[C@H]23)OCO4)cc(OC)c1O [Etoposide] + CS(=O)(=O)N1CCN(Cc2cc3nc(-c4cccc5[nH]ncc45)nc(N4CCOCC4)c3s2)CC1 [Pictilisib] (partner 1 µM)
Outline: as §1

Cell Line: UMC-11
- relative viability (Etoposide + OSI-027; first compound 0.01 µM): 0.443
- relative viability (Etoposide + OSI-027; first compound 0.03162 µM): 0.544
- relative viability (Etoposide + OSI-027; first compound 0.1 µM): 0.299
- relative viability (Etoposide + OSI-027; first compound 0.3162 µM): 0.431
- relative viability (Etoposide + OSI-027; first compound 1 µM): 0.3
- relative viability (Etoposide + Navitoclax; first compound 0.01 µM): 0.344
- relative viability (Etoposide + Navitoclax; first compound 0.03162 µM): 0.307
- relative viability (Etoposide + Navitoclax; first compound 0.3162 µM): 0.193
- relative viability (Etoposide + Navitoclax; first compound 1 µM): 0.155
- relative viability (Bleomycin + OSI-027; first compound 0.01 µM): 0.403
- relative viability (Bleomycin + OSI-027; first compound 0.03162 µM): 0.497
- relative viability (Bleomycin + OSI-027; first compound 0.1 µM): 0.482
- relative viability (Bleomycin + OSI-027; first compound 0.3162 µM): 0.393
- relative viability (Bleomycin + OSI-027; first compound 1 µM): 0.353
- relative viability (Etoposide + Pictilisib; first compound 0.01 µM): 0.837
- relative viability (Etoposide + Pictilisib; first compound 0.03162 µM): 0.938
- relative viability (Etoposide + Pictilisib; first compound 0.3162 µM): 0.339
- relative viability (Etoposide + Pictilisib; first compound 1 µM): 0.194
